These are literature values, as cited in patent US8834858B2, “Treatment for dyslipidemia” (Solvotrin Therapeutics Ltd., priority 2011, dated 2014).

Molecules are shown by their SMILES. Read-outs that look alike come from different tables or passages of the source.

For data set [1] the following is noted: cited from earlier work.
The conditions of data set [2]: cited from earlier work. This is another data set of the same source.
The conditions of data set [3]: cited from earlier work. The source holds these as a separate data set.
For data set [4] the following is noted: cited from earlier work. This is another data set of the same source.
Data set [5] has as its system LDL cholesterol, HDL cholesterol, TG. As to conditions: adult dyslipidemias; cited from earlier work.
The next data set concerns the target PGD2 receptor-1 (DP1) (Homo sapiens, UniProt Q13258). As to conditions: cited from earlier work; for reduction of flushing associated with 1.5 g ER nicotinic acid: single dose study.
The subject of another data set is TG, LDL, HDL. As to conditions: atorvastatin 10 mg/day, Slo-Niacin to 1500 mg/day, 3-month segments; cited from earlier work.
Data set [6] relates to fasting glucose, glycated albumin, TG, total cholesterol. As to conditions: cited from earlier work; for fall in fasting glucose levels: two weeks.
The subject of a further data set is HbA1c. As to conditions: cited from earlier work.
For data set [7], the system named is fasting glucose, glycated albumin. Conditions: 4.0 g, one month; cited from earlier work.
The mark [8] stands for this setting: high risk patients (secondary prevention).

Sequence of PGD2 receptor-1 (DP1) (Q13258 whole entry): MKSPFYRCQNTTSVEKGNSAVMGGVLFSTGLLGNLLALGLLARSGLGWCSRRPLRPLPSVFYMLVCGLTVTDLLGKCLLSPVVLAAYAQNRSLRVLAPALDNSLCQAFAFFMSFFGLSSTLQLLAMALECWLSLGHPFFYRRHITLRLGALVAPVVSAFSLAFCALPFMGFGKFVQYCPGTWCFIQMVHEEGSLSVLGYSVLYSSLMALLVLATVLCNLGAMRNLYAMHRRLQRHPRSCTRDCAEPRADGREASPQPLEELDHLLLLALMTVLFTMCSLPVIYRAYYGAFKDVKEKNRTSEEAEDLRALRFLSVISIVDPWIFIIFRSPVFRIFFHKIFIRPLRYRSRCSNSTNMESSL

`CC(=O)Oc1ccccc1C(=O)O` [aspirin]: the “patients with at least occult bleeding” value in data set [1] (daily aspirin use even at low doses) is “More than 75%”. The “absolute annual increased risk of major bleeding episodes” value in data set [1] (low dose aspirin (75-325 mg daily), 22 randomized trials) is 1.3 per 1000 patients. Besides, in data set [2] (325 mg, 30-60 minutes before IR nicotinic acid), the “effect on flushing symptoms” value is given as “attenuated flushing symptoms”. Also, in [2] (first week of treatment, with vs without aspirin), the “patients with moderate or greater flushing” value was 15%. In data set [2] (four week study, 325 mg aspirin before ER nicotinic acid vs no aspirin), the flushing-specific discontinuation rate was 1.8%. For the same compound, in data set [2] (pre-treatment with aspirin), the “reduction of the incidence of flushing” value is 18%. In addition, the “mean rate of treatment discontinuation because of nicotinic acid flushing” value in data set [2] (with adjunctive aspirin) is listed as “approximately 6.5%”. Besides, in data set [3] (setting [8]), the “prevention of non-fatal vascular events” value is “about 30%”. Further, in data set [3] (setting [8]), the “prevention of vascular death” value is reported as “approximately 15%”. In data set [3] (patients with unstable angina), the risk reduction entry is “approximately 50%”. In addition, in data set [3] (primary prevention), the “reductions in risk of MI” value is given as 25%-33. In addition, the “avoidance of a major vascular event” value in [3] (prior MI, stroke, or TIA, approximately 30 months) was 36 per 1,000 patients; in [3] (unstable angina, treated for 6 months), 50 per 1,000 patients. The “Lowest effective daily dose” value in data set [4] (Acute MI) is 160 mg; in data set [4] (Acute ischaemic stroke) it was 160 mg; in data set [4] (Hypertension) it was 75 mg; in [4] (Men at high CV risk), 75 mg; in data set [4] (Polycythemia), 100 mg; in data set [4] (Severe carotid artery stenosis) it was 75 mg. Besides, the “Lowest effective daily dose” value is reported as 75 mg in [4] (Stable angina); 50 mg in data set [4] (TIA and ischaemic stroke); 75 mg in [4] (Unstable angina).

Consider `O=C1[C@H](CC[C@H](O)c2ccc(F)cc2)[C@@H](c2ccc(O)cc2)N1c1ccc(F)cc1` [Ezetimibe], for which, in [5], the HDL cholesterol entry is “+3%”, the LDL cholesterol is given as −18 to −24% and the TG entry is on record as “No change”.

With `CS(=O)(=O)c1cc(F)cc2c3c(n(Cc4ccc(Cl)cc4)c12)[C@@H](CC(=O)O)CC3` [laropiprant], the “reduction of flushing associated with 1.5 g ER nicotinic acid” value on PGD2 receptor-1 (DP1) (30 mg dose) was 47%; at PGD2 receptor-1 (DP1) (100 mg dose), 67%; on PGD2 receptor-1 (DP1) (300 mg dose) it was 74%. The overall discontinuation rate on PGD2 receptor-1 (DP1) (4,700 patients, ER nicotinic acid without vs with added laropiprant) is 25.3%. On PGD2 receptor-1 (DP1) (nicotinic acid without vs with added laropiprant (Kush 2009)), the “rate of moderate/severe flushing” value was 24%.

With `CC(C)c1c(C(=O)Nc2ccccc2)c(-c2ccccc2)c(-c2ccc(F)cc2)n1CC[C@@H](O)C[C@@H](O)CC(=O)O` [Atorvastatin], in the data set with TG, LDL, HDL, the HDL result is listed as “+6%”, the LDL is −36% and the TG is recorded as −26%.

`O=C(Oc1ccccc1C(=O)O)c1ccccc1O` [salsalate]: the figures for the “fall in fasting glucose levels” value in data set [6] (3.0 g/daily) and in data set [6] (4.5 g daily) were 9% and 19%, respectively. Also, the “decrease in TG concentrations” value in data set [6] (3.0 g) is given as 11%; in data set [6] (4.5 g) it was 40%. In addition, in data set [6] (4.5 g dose), the “reduction in glycated albumin” value is reported as 19%. The “fall in total cholesterol” value in data set [6] (in vivo) is reported as 12%. In addition, the “mean change in HbA1c levels compared with placebo” value in the data set with HbA1c (3.0 g daily) was −0.36%; with HbA1c (3.5 g daily), −0.34%; in the data set on HbA1c (4.0 g daily), −0.49%. In data set [7], the “reduction of fasting glucose compared with placebo” value is 13%. For the same compound, in data set [7], the “reduction of glycated albumin” value is 17%. Moreover, in data set [7], the “reduction of glycemic response after an oral glucose challenge” value is reported as 20%.
